The text below walks through data of patent US8829200B2, “Benzimidazole inhibitors of leukotriene production” (Boehringer Ingelheim International GmbH, priority 2010, dated 2014).

Assay [1] has as its system biomarkers for myocardial infarction risk. As to conditions: clinical trial; cited from earlier work.
The target in assay [2] is recombinant human FLAP protein (Homo sapiens (Human), UniProt P20292). Nature of the assay: FLAP binding assay (Scintillation Proximity Assay). As to conditions: displacement of [125I]L-691,831, membranes of sf9 cells expressing human FLAP; read-out: SPA IC50. The method, then: Compounds are assessed for the ability to bind to FLAP in a binding assay that measures compound-specific displacement of an iodinated (^125I) FLAP inhibitor via a Scintillation Proximity Assay format (adapted from S. Charleson et al., Mol. Pharmacol., 1992, 41, 873-879).
Cell pellets produced from sf9 insect cells expressing recombinant human FLAP protein are resuspended in buffer A [15 mM Tris-HCl (pH 7.5), 2 mM MgCl2, 0.3 mM EDTA, 1 mM PMSF]. The cells are lysed with a Dounce homogenizer and the material is centrifuged at 10,000×g for 10 minutes. The supernatant is then collected and centrifuged at 100,000×g for 60 minutes. To prepare membrane protein for an assay, an aliquot of the 100,000×g pellet is resuspended in 1 ml of buffer A, Dounce homogenized, and finally subjected to polytron mixing (30 seconds). Membrane protein (25 μl, 5 μg) is mixed with WGA SPA beads (Amersham) and stirred for 1 h. To an assay plate (Perkin Elmer FlexiPlate) is added 25 μl of test compound prepared in Binding buffer [100 mM Tris (pH 7.5), 140 mM NaCl, 5% glycerol, 2 mM EDTA, 0.5 mM TCEP, 0.05% Tween 20], 25 μl of [^125I]L-691,831 (an iodinated analog of MK-591, Charleson et al. Mol. Pharmacol., 41, 873-879, 1992) and finally 50 μl of the bead/protein mixture. (final concentrations: beads, 200 μg/well; protein, 5 μg/well; [^125I] probe, 0.08 nM/well (17 nCi/well). The plates are shaken for 2 h before reading on a Microbeta plate reader. Non-specific binding is determined by the addition of 10 μM cold L-691,831 compound.
Background: Scintillation proximity formats need no separation of bound from free tracer.

The test system of assay [3] is synthesis of LTB4 in human whole blood. Nature of the assay: human whole blood LTB4 production inhibition assay. The assay is classed as cell-based. As to conditions: heparinized human whole blood, calcimycin-stimulated, plasma LTB4; read-out: hWB IC50. On the procedure: Compounds are additionally tested in a human whole blood assay to determine their ability to inhibit the synthesis of LTB4 in a cellular system. Compounds are combined with heparinized human whole blood and incubated for 15 minutes at 37° C. Calcimycin ([…], prepared in phosphate-buffered saline, pH 7.4) is then added and the mixture is incubated for another 30 minutes at 37° C. The samples are centrifuged for 5 min at low speed (1500×g) and the plasma layer is removed. Plasma LTB4 concentrations are then measured using an antibody-based homogenous time-resolved fluorescence method (CisBio, Bedford, Mass.).

The next assay concerns human glomerulonephritis. As to conditions: clinical trial; cited from earlier work.
The test system of assay [4] is apoE/LDL-R double knockout mice. As to conditions: oral dosing, high-fat diet from 2 months of age to 6 months; cited from earlier work.
Another assay relates to ApoE−/−xCD4dnTβRII mice. As to conditions: administration via infusion, treated for four weeks; cited from earlier work.

Sequence of recombinant human FLAP protein (P20292 whole entry): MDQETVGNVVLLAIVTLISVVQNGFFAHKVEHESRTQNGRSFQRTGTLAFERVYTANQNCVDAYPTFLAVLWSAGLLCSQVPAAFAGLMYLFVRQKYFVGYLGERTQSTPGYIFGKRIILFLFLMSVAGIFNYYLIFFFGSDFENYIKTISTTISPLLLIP

Consider `O=C(O)[C@@H](c1ccc(OCc2ccc3ccccc3n2)cc1)C1CCCC1` [DG-031], for which, in assay [1], the “effect on biomarkers for myocardial infarction risk” value is recorded as “dose-dependent suppression of several biomarkers”.

What is called IC50 is the midpoint of a concentration-inhibition curve. Regarding `CN(C)CCNC(=O)c1ccccc1-c1nc2cc(-c3cnc(N)nc3)ccc2n1C(C)(C)C` [Example 24, 2-[5-(2-Amino-pyrimidin-5-yl)-1-tert-butyl-1H-benzoimidazol-2-yl]-N-(2-dimethylamino-ethyl)-benzamide], the IC50 in assay [2] amounted to 140 nM; in assay [3] it was 2870 nM. For `CC(C)(C)n1c(-c2ccccc2C(=O)NC2CCNCC2)nc2cc(-c3cnc(N)nc3)ccc21` [Example 25, 2-[5-(2-Amino-pyrimidin-5-yl)-1-tert-butyl-1H-benzoimidazol-2-yl]-N-piperidin-4-yl-benzamide] the same measures were 460 nM and over 5000 nM. In the same order, the values of `CC(C)NC(=O)c1ccccc1-c1nc2cc(-c3cnc(N)nc3)ccc2n1C(C)(C)C` [Example 26, 2-[5-(2-Amino-pyrimidin-5-yl)-1-tert-butyl-1H-benzoimidazol-2-yl]-N-isopropyl-benzamide] are 34.6 nM and 4900 nM. For `CC(C)(C)n1c(-c2ccccc2C(=O)N2CCOCC2)nc2cc(-c3cnc(N)nc3)ccc21` [Example 28, {2-[5-(2-Amino-pyrimidin-5-yl)-1-tert-butyl-1H-benzoimidazol-2-yl]-phenyl}-morpholin-4-yl-methanone] the same measures were 520 nM and over 5000 nM. For the compound `CN(C)C(=O)c1ccccc1-c1nc2cc(-c3cnc(N)nc3)ccc2n1C(C)(C)C` [Example 29, 2-[5-(2-Amino-pyrimidin-5-yl)-1-tert-butyl-1H-benzoimidazol-2-yl]-N,N-dimethyl-benzamide], the IC50 in assay [2] is 200 nM; in assay [3] it was 3050 nM.

`CNC(=O)c1cc(F)ccc1-c1nc2cc(-c3cnc(N)nc3)ccc2n1C(C)(C)C` [Example 33, 2-[5-(2-Amino-pyrimidin-5-yl)-1-tert-butyl-1H-benzoimidazol-2-yl]-5-fluoro-N-methyl-benzamide]: the IC50 in assay [2] came to 20 nM; in assay [3], 3080 nM. In the same order, the values of `CNC(=O)c1cccc(F)c1-c1nc2cc(-c3cnc(N)nc3)ccc2n1C(C)(C)C` [Example 34, 2-[5-(2-Amino-pyrimidin-5-yl)-1-tert-butyl-1H-benzoimidazol-2-yl]-3-fluoro-N-methyl-benzamide] are 15.8 nM and 906 nM. As to `CC(C)(C)Sc1c(CC(C)(C)C(=O)O)n(Cc2ccc(Cl)cc2)c2ccc(OCc3ccc4ccccc4n3)cc12` [MK-591], the effect on proteinuria result with human glomerulonephritis was “reduce proteinuria”.

Take `CC(C)c1ccc2c(c1)c(SC(C)(C)C)c(CC(C)(C)C(=O)O)n2Cc1ccc(Cl)cc1` [MK-886]: in assay [4], the “decrease in plaque coverage in the aorta” value is recorded as 56% and the “decrease in plaque coverage in the aortic root” value is given as 43%. For the same compound, the “decrease in plaque area in the aortic root” value with ApoE−/−xCD4dnTβRII mice is about 40%.
